We go through ten molecules from patent publication US9157099B2, “Methods for preparing a hydrocarbon” (SHELL OIL COMPANY, priority 2012, dated 2015).

The target in series [1] is T1, purified His-Fdc1/Pad1 (Saccharomyces cerevisiae, UniProt Q03034).
T1 sequence (Q03034 1-503): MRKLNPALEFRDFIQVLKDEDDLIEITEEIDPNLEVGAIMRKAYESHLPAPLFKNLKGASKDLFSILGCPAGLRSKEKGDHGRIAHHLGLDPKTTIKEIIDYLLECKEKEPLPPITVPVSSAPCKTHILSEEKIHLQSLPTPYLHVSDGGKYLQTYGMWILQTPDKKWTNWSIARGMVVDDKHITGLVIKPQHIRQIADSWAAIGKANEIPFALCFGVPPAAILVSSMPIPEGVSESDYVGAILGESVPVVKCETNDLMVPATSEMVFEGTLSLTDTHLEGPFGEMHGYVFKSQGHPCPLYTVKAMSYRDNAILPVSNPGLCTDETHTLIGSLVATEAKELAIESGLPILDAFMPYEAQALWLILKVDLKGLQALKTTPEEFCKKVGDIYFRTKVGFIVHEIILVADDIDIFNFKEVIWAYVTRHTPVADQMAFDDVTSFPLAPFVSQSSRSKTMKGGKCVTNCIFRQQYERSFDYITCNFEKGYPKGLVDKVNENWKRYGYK
Kind of series: UV-VIS spectroscopy of substrate consumption, Michaelis Menten parameters. The note with it: for Kcat: substrate of purified His-Fdc1/Pad1, pH 6, 20° C. On the procedure: A direct observation of enzyme activity is possible by recording UV-VIS spectra of the solution. Aromatic substrates and aliphatic substrates with two or more double bonds conjugated to the acidic group absorb in the UV region. The activity of purified His-Fdc1/Pad1 was assayed against varying concentrations of these substrates in 400 μl 50 mM KCl, 50 mM NaPi pH 6 in a 1 mm pathlength cuvette at 20° C. Substrate consumption was monitored using a Cary 50 Bio spectrophotometer (varian) either in scanning mode, or at a specific wavelength for kinetic experiments. The rate of cinnamic acid consumption was monitored at 270 nm, ferulic acid at 312 nm, 2,4-pentadienoic acid at 242 nm, sorbic acid at 260 nm, 2,4,6-octatrienoic acid at 290 nm and 2,4-nonadienoic acid at 260 nm.

In series [2] the target is T2, Fdc1/Pad1 (Saccharomyces cerevisiae, UniProt Q03034).
T2 construct: His (N); made in house; host or cells: E. coli Bl21(DE3), pCOLAduet-1
T2 sequence (Q03034 1-503): T1 sequence (Q03034 1-503)
Kind of series: Fdc1/Pad1 substrate range, in vivo and in vitro (summary). The note with it: summary of substrate range. The text has this: To assess what limit the enzyme imposes on the extent of unsaturation, the inventors tested a wide range of saturated and unsaturated substrates, both in vivo and in vitro.

The target of series [3] is T3, fdc1/pad1 in pCOLAduet in E. coli Bl21(DE3) (Saccharomyces cerevisiae, UniProt Q03034).
T3 construct: expressed in transfected cells; host or cells: E. coli Bl21(DE3) carrying fdc1 (MCS1) and pad1 (MCS2) in pCOLAduet-1
T3 sequence (Q03034 1-503): T1 sequence (Q03034 1-503)
As to the kind of experiment: head space GC-MS product analysis, in vivo (induced cultures). The format is cell-based. The note with it: E. coli cultures expressing Fdc1/Pad1, 25° C. On the procedure: For in vivo analysis, fdc1/pad1 in pCOLAduet and empty pCOLAduet in E. coli Bl21(DE3) were grown in LB supplemented with 40 μg/ml kanamycin at 37° C. to an OD600 of about 0.7 and induced with […] IPTG. 11.5 ml induced culture and a solution of 3.5 ml 20 mM substrate in distilled water with a pH of about 7.5 were placed in 20 ml head space vials with crimp top seals. Cultures were incubated in shaking incubator at 25° C. for about 12-48 hours.
(§1) Samples were analysed by GC-MS using a Thermofisher DSQ II. Vials were incubated for 3 minutes at 80° C. with agitation. 0.5 ml headspace was injected with a 105° C. syringe and a split ratio of 1/10. Analytes were separated on a 30 m 0.25 mm 0.25μ ZB5-MS (commercially obtainable from Zebron) column run (alternatively a 30 m×0.25 mm i.d.×0.1μ Varian VF-5HT column may be used) with a flow of 1.5 ml/min He. Oven temperature was held at 35° C. for 2 minutes before being ramped up to 250° C. at 10° C./min. Products were identified by searching for the corresponding mass peak.
As described above, for in vivo studies, Fdc1/Pad1 in pCOLAduet-1 and empty pCOLAduet-1 vector were transformed into E. coli Bl21(DE3). Cultures were grown in LB supplemented with 40 μg/ml kanamycin at 37° C. to OD600˜0.7 and induced with 1 mM IPTG. 11.5 ml of induced culture was added to 3.5 ml 20 mM substrate pH ˜7.5 per tube in a sealed headspace vial.
(§2) All Fdc1/Pad1 reactions were incubated in a shaking incubator at 25° C. for ˜36 hours.
(§3) Samples were analysed by GC-MS using a Thermofisher DSQ II. Vials were incubated for 3 minutes at 80° C. with agitation. 0.5 ml headspace was injected with a 105° C. syringe and a split ratio of 1/10. Analytes were separated on a 30 m 0.25 mm 0.25μ ZB5-MS (or 30 m×0.25 mm i.d.×0.1μ Varian VF-5HT) column run with a flow of 1.5 ml/min He. Oven temperature was held at 35° C. for 2 minutes before being raised to 250° C. at 10° C./min. Products were identified by searching for the corresponding mass peak.

Series [4] addresses T1, purified His-Fdc1/Pad1. Kind of series: head space GC-MS product analysis, in vitro reactions. It is filed as biochemical. Details: His (N); made in house; host or cells: E. coli Bl21(DE3), pCOLAduet-1 co-expression plasmid, Ni-NTA purified. To be noted: purified enzyme, 25° C. The protocol: For in vitro analysis, purified His-Fdc1/Pad1 polypeptide was buffer exchanged into a solution of 150 mM NaCl and 50 mM NaPi in water with pH 7.5. Subsequently solutions of 11.5 ml 150 mM NaCl and 50 mM NaPi with pH 7.5, of 3.5 ml 20 mM substrate with pH 7.5 and of 150 μl 30 mg/ml enzyme in water or buffer were added to 20 ml head space vials with crimp top seals. Reactions were incubated with shaking at 25° C. for about 12-48 hours.
as §1
For in vitro reactions, Fdc1/Pad1 partially purified by Ni^2+ affinity and buffer exchanged into 150 mM NaCl, 50 mM NaPi pH 7.5. 11.5 ml […] pH 7.5, 3.5 ml 20 mM substrate pH 7.5 and 150 μl 30 mg/ml enzyme or enzyme free buffer were added to a sealed headspace vial.
as §2, §3

In series [5] the target is E. coli Bl21(DE3) cells containing the fdc1/pad1 co-expression plasmid (Saccharomyces cerevisiae, UniProt Q03034). To be noted: 6 mM sorbic acid, pH 6.2, overnight at 37° C. The protocol: In vivo enzyme activity assays were carried out using exogenous supplied substrates in the media (i.e. sorbic acid).
For in vivo pH assays, LB agar plates were supplemented with […] kanamycin, 6 mM sorbic acid and 0.004% w/v phenol red in distilled water and buffered to pH 6.2. E. coli Bl21(DE3) cells containing either the co-expression plasmid or empty pCOLAduet-1 were inoculated onto the plate and grown overnight at 37° C. […] This allows rapid visual indication of enzyme activity levels.

Substrate in series [6]: CC=CC=CC=CC(=O)O
Kind of series: purified protein, by the assay type. To be noted: other: substrate of purified His-Fdc1/Pad1, pH 6, 20° C.

Substrate in series [7]: CCCCC=CC=CC(=O)O
As to the kind of experiment: purified protein, by the assay type. To be noted: other: substrate of purified His-Fdc1/Pad1, pH 6, 20° C.

Substrate in series [8]: C=CC=CC(=O)O
As to the kind of experiment: purified protein, by the assay type. To be noted: other: substrate of purified His-Fdc1/Pad1, pH 6, 20° C.

Substrate in series [9]: COc1cc(/C=C/C(=O)O)ccc1O
Kind of series: purified protein, by the assay type. To be noted: other: substrate of purified His-Fdc1/Pad1, pH 6, 20° C.

Substrate in series [10]: O=C(O)C=Cc1ccccc1
Kind of series: purified protein, by the assay type. The note with it: other: substrate of purified His-Fdc1/Pad1, pH 6, 20° C.

Substrate in series [11]: C/C=C/C=C/C(=O)O
Kind of series: purified protein, by the assay type. The note with it: other: substrate of purified His-Fdc1/Pad1, pH 6, 20° C.

Entries after “also recorded” stand apart in the source; their conditions may differ.

Consider `CC=CC=CC=CC(=O)O` [2,4,6-Octatrienoic acid], for which, in [1], the “enzyme dependent spectral changes / conversion by UV-VIS” value is on record as “enzyme catalysed conversion”. Also, the “in vitro and in vivo activity (decarboxylation)” value (“in vitro and in vivo activity” below) in series [2] is on record as “high”.

As to `CCCCC=CC=CC(=O)O` [2,4-Nonadienoic acid], in series [2], the “in vitro and in vivo activity” value was “high”.

In the case of `C=CC=CC(=O)O` [2,4-Pentadienoic acid], the “in vitro and in vivo activity” value in series [2] was “high”.

For the molecule `CCCCC=CC(=O)O` [2-Heptenoic acid], the “decarboxylation product formation by GC-MS, in vivo” value in [3] is listed as “only been detected in vivo; also recorded: In vivo activity has also been detected”.

Take `CCCC=CC(=O)O` [2-Hexenoic acid]: the “decarboxylation product formation by GC-MS, in vivo” value in series [3] was “also been detected in vivo”. For the same molecule, the “decarboxylation product formation by GC-MS, in vitro” value in series [4] is 1-pentene product has been detected and enzyme-catalysed production of 1-pentene. Further, the “in vitro and in vivo activity” value in [2] is “Lower level activity”.

Turning to `CCCCCC=CC(=O)O` [2-Octenoic acid], the “decarboxylation product formation by GC-MS, in vivo” value in [3] was “only been detected in vivo”; in [3] (listed as 2-octenoic acids), “In vivo activity has also been detected”.

Regarding `O=C(O)C=Cc1ccccc1` [Cinnamic acid], the “decarboxylation product formation by GC-MS, in vivo” value in [3] is “verified the presence of the anticipated decarboxylation products; also recorded: confirming styrene production”. For the same molecule, the Kcat in series [1] turned out to be 34.394 s⁻¹. Also, the “decarboxylation product formation by GC-MS, in vitro” value in series [4] is recorded as “confirmed product formation; also recorded: confirming styrene production”. Moreover, the “in vitro and in vivo activity” value in [2] is “high”.

For the molecule `COc1cc(/C=C/C(=O)O)ccc1O` [Ferulic acid], in [3], the “decarboxylation product formation by GC-MS, in vivo” value is “verified the presence of the anticipated decarboxylation products”. The Kcat in series [1] worked out at 30.774 s⁻¹. Moreover, the “decarboxylation product formation by GC-MS, in vitro” value in series [4] is recorded as “confirmed product formation”. The “in vitro and in vivo activity” value in series [2] was “high”.

`C/C=C/C=C/C(=O)O` [Sorbic acid]: in series [3], the “decarboxylation product formation by GC-MS, in vivo” value is reported as “verified the presence of the anticipated decarboxylation products”. In addition, the Kcat in series [1] was found to be 2.793 s⁻¹. For the same molecule, in series [4], the “decarboxylation product formation by GC-MS, in vitro” value is “confirmed product formation”. Besides, the “substrate dependent alkalinification in vivo” value in [5] is on record as “yellow to red colour change observed”. In addition, the “in vitro and in vivo activity” value in [2] is reported as “high”.

B1: purified His-Fdc1/Pad1 (Saccharomyces cerevisiae S288C) (protein)
chain: T1 sequence (Q03034 1-503)
With B1, the Km in series [6] was 213 µM; in series [7], 221 µM; in [8], 109 µM; in [9], 203 µM; in series [10] it was 21 µM; in series [11], 81 µM. Besides, the results for the kcat in series [6], in [7] and in series [8] were 99 s⁻¹, 0.588 s⁻¹ and 0.336 s⁻¹, respectively.
